Assay results: ChEMBL document CHEMBL1149654, “Caprolactams as potent CGRP receptor antagonists for the treatment of migraine” (Bioorg Med Chem Lett, 2007)

Tests used:
[1] = target: T1, Calcitonin-gene-related peptide receptor, CALCRL/RAMP1 (Homo sapiens, UniProt O60894+Q16602); assay: Displacement of [125I]CGRP from human CL receptor in RAMP1 membranes; type: cell membranes
[2] = target: T1, Calcitonin-gene-related peptide receptor, CALCRL/RAMP1; assay: Antagonist activity at human CGRP receptor in E10 cells assessed as inhibition of cAMP production; type: functional, cell-based
[3] = Clearance in rat at 10 mg/kg, po; type: ADME, organism-based; set-up: dose 10 mg/kg, route oral; conditions: in vivo
[4] = Bioavailability in rat at 10 mg/kg, po; type: ADME, organism-based; conditions: in vivo
[5] = target: T1, Calcitonin-gene-related peptide receptor, CALCRL/RAMP1; assay: Displacement of [125I]CGRP from human CL receptor in RAMP1 membranes at 100 uM; type: cell membranes

T1 sequence (O60894 whole entry): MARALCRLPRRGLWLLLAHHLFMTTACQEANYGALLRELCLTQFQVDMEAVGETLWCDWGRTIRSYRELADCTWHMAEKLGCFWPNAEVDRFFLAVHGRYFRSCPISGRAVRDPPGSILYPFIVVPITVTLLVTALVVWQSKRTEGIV
T1 sequence (Q16602 whole entry): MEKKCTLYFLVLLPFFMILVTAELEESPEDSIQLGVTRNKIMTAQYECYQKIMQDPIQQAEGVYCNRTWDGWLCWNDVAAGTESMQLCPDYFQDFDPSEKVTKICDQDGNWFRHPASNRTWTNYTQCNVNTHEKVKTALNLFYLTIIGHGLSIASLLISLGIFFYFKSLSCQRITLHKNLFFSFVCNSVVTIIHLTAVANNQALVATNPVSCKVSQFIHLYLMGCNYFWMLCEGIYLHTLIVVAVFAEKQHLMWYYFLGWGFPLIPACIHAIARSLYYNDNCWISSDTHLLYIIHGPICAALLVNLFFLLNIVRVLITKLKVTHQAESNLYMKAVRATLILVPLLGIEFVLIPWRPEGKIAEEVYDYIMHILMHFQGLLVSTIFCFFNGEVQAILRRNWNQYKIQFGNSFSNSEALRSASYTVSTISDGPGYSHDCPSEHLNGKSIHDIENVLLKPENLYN

Ki [1] [nM]	IC50 [2] [nM]	CL/F [3] [mL/min/kg]	bioavailability [4] [%]	Activity [5] [%]	Compound
934					CC(C)(C)OC(=O)CN1C(=O)[C@H](NC(=O)N2CCC(N3Cc4ccccc4NC3=O)CC2)CCC[C@@H]1c1ccccc1
25	36				O=C(N[C@@H]1CC[C@@H](c2ccccc2)CN(CC2CC2)C1=O)N1CCC(N2Cc3ccccc3NC2=O)CC1
35	133				O=C(NC1CC(c2ccccc2)CCN(CC2CC2)C1=O)N1CCC(n2cc(-c3ccccc3)[nH]c2=O)CC1 (racemic; 29)
2	4	36	27		O=C(N[C@@H]1CC[C@@H](c2ccccc2)CN(CC2CC2)C1=O)N1CCC(n2cc(-c3ccccc3)[nH]c2=O)CC1
544	3820				O=C(NC1CC(c2ccccc2)CCN(CC2CC2)C1=O)N1CCC(n2nc(-c3ccccc3)[nH]c2=O)CC1 (racemic; 27)
7800	2400				O=C(N[C@@H]1CCCCN(CC2CC2)C1=O)N1CCC(N2Cc3ccccc3NC2=O)CC1
1800					O=C(N[C@@H]1CCCCN(Cc2ccccc2)C1=O)N1CCC(N2Cc3ccccc3NC2=O)CC1
11100					O=C(N[C@H]1CCCCN(Cc2ccccc2)C1=O)N1CCC(N2Cc3ccccc3NC2=O)CC1
17	141				O=C(NC1CC(c2ccccc2)CCN(CC2CC2)C1=O)N1CCC(n2cc(-c3ccccc3)[nH]c2=O)CC1 (racemic; 30)
17000					CC(C)(C)OC(=O)CN1C(=O)C(NC(=O)N2CCC(N3Cc4ccccc4NC3=O)CC2)CCCC1c1ccccc1 (racemic; 12)
				63	O=C(N[C@@H]1CCN(Cc2ccccc2)C1=O)N1CCC(N2Cc3ccccc3NC2=O)CC1
266	488				O=C(NC1CC(c2ccccc2)CCN(CC2CC2)C1=O)N1CCC(n2nc(-c3ccccc3)[nH]c2=O)CC1 (racemic; 28)
5830	6630				O=C(N[C@H]1CC[C@H](c2ccccc2)CN(CC2CC2)C1=O)N1CCC(N2Cc3ccccc3NC2=O)CC1
31	54				O=C(NC1CCC(c2ccccc2)CN(CC2CC2)C1=O)N1CCC(N2Cc3ccccc3NC2=O)CC1 (racemic; 18)
29	45				O=C(N[C@@H]1CC[C@@H](c2ccccc2)CN(CC2CC2)C1=O)N1CCC(n2nc(-c3ccccc3)[nH]c2=O)CC1
689	408				O=C(N[C@@H]1CCC[C@H](c2ccccc2)N(CC2CC2)C1=O)N1CCC(N2Cc3ccccc3NC2=O)CC1
3700	3100				CC(C)N1C(=O)C(NC(=O)N2CCC(N3Cc4ccccc4NC3=O)CC2)CCc2ccccc21 (configuration not stated)
1990	2120				CC(C)(C)OC(=O)CN1C(=O)C(NC(=O)N2CCC(N3Cc4ccccc4NC3=O)CC2)CCCC1c1ccccc1 (racemic; 13)
> 10000	471				CC(C)(C)OC(=O)CN1C(=O)[C@@H](NC(=O)N2CCC(N3Cc4ccccc4NC3=O)CC2)CCC[C@H]1c1ccccc1
695	778				O=C(NC1CCC(c2ccccc2)CN(CC2CC2)C1=O)N1CCC(N2Cc3ccccc3NC2=O)CC1 (racemic; 17)
29	32				O=C(N[C@@H]1CC[C@@H](c2ccccc2)CN(CC2CC2)C1=O)N1CCC(N2CCc3ccccc3NC2=O)CC1
				46	O=C(N[C@@H]1CCCN(Cc2ccccc2)C1=O)N1CCC(N2Cc3ccccc3NC2=O)CC1

Compound	Ki [1] [nM]	IC50 [2] [nM]	CL/F [3] [mL/min/kg]	bioavailability [4] [%]	Activity [5] [%]
CC(C)N1C(=O)[C@H](NC(=O)N2CCC(N3Cc4ccccc4NC3=O)CC2)N=C(c2ccccc2)c2ccccc21	55	65			
